Results reported in patent publication US5385888A, “Class I MHC modulation or surface receptor activity” (The Regents of the University of California, priority 1993, dated 1995).
One block for each compound: values may come before it. Where a SMILES comes first, the peptide text is derived from it.

Assays:
rat adipocytes = format: cell-based
Experimental: (§1) Preparation of Adipocytes--The procedure has been described in detail previously. Briefly, male Wistar rats (100-150 g) were decapitated, and the epididymal fat pads removed and minced with scissors into KRHB (Krebs-Ringer/HEPES/Bovine serum albumin (BSA) buffer: 80 mM NaCl, 4.7 mM KCl, 2.5 mM CaCl2, 1.2 mM MgSO4, 50 mM HEPES, 5% BSA (Sigma, radioimmunoassay grade), pH 7.2) containing 5 mM D-glucose and 1 mg/ml collagenase (type I, Worthington) and digested (1 hr, 37° C.) with gentle shaking (250 cycles per minute). The adipocytes were washed five times in KRHB (each wash in a volume ten times the cell volume). The adipocyte layer was finally diluted with KRHB to a 10% (v/v) suspension as estimated by the volume of packed cells (lipocrit).
Glucose uptake in vitro--The uptake of [^14 C]glucose (D-[U-^14 C]glucose, Amersham, (300 Ci/mol)) by isolated rat adipocytes was measured as follows unless otherwise stated: 50 μl adipocyte cell suspension was pipetted into "Nunc-Immuno tube minisorp" (Nunc, Denmark) and preincubated at 37° C. with gentle shaking (225 cycles per minute) for 30 min. Hormones and peptides were added in 50 μl KRHB and incubated for 30 min at 37° C. Before addition to cells, all solutions were neutralized to pH 7.2. [^14 C]glucose tracer (~100,000 dpm) was added and the incubation continued for another 20 minutes at 37° C. The assay was terminated by centrifugation of 100 μl sample on top of 250 μl silicone oil (Thomas Scientific) in 500 μl tubes in a microfuge (10,000×g) for 1 min. The tube was cut just below the adipocyte layer and the amount of radioactivity in the adipocytes determined by scintillation counting. The precise concentration of [^14 C]glucose was calculated from total counts added.

purified human IR = target: T1, purified human IR (Homo sapiens, UniProt P06213); assay: Tyrosine kinase activity of purified IR (autophosphorylation); format: biochemical
T1 construct: The product was a tetramer with two heavy chains, each ~130 kDa, and two light chains, each ~90 kDa; from tissue; host or cells: human placenta
Experimental: The purified human IR and the cloned cytoplasmic kinase domain (IRKD) have been described (Ellis et al., (1988) Virology 62:1634-39; Roth et al., (1986) J. Biol. Chem. 261:3753-57). Briefly, the human IR was purified from placenta by immunoaffinity columns, using monoclonal antibodies and binding of IR to wheat germ agglutinin. The product was a tetramer with two heavy chains, each ~130 kDa, and two light chains, each ~90 kDa. […] When peptide was used, it was added in 5.0 μl, the volume adjusted to 20 μl by adding buffer, and the mixture incubated (1 hr, 4° C.). After incubation, 10 μl of a solution containing 2.5 μCi ^32 P-labeled ATP (3,000 Ci/mmol; γ-labeled; Amersham) 50 mM HEPES, pH 7.6, 150 mM NaCl, 0.1% Triton X-100, 37.5 μM unlabeled ATP, 15 mM MgCl2, and 6 mm MnCl2 was added to a final volume of 30 μ l. The mixture was then incubated for 30 min. at 24° C. After incubation, 15 μl sample buffer was added, and the sample was boiled for 5 min., and run on 10% SDS-PAGE overnight. The gel was dried, and autoradiograms processed with an exposure time of 5-10 hr. For quantitative estimates the β-subunit band of IR and the IRKD bands were cut out and counted dry (Cerenkov) in a scintillation counter.

EGFR = target: T2, EGFR (Rattus norvegicus, UniProt G3V6K6); assay: Cell-associated 125I-labeled EGF on rat adipocytes; format: binding
T2 construct: male Wistar rats (100-150 g) were decapitated, and the epididymal fat pads removed; endogenous in cells; host or cells: freshly isolated epididymal adipocytes of male Wistar rats
Experimental: as §1
Cell-associated ^125 I-labeled EGF--50 μl adipocyte cell suspension was pipetted into "Nunc-Immuno tube minisorp" (Nunc, Denmark) and preincubated at 37° C. with gentle shaking (225 cycles per minute) for 30 min. […] The assay was terminated by centrifugation of 75 μl sample as described above for glucose uptake, and the cell-associated as well as the free ^125 I-labeled EGF was determined by γ-counting. […] The data were calculated as specific cell-associated ^125 I-labeled EGF and the maximal value was in each experiment set to 100%.

rats = assay: Blood glucose levels in whole rats after i.v. injection; format: in vivo, rat; conditions: insulin alone 10 μg/kg i.v.
Experimental: The effect of D^k -(61-85) in whole rats was determined. […] All animals were starved 16-20 hrs. prior to experimentation. Each determination was based on results as obtained from 42 rats, where the same rats were used in the four treatment schedules. The schedules were a control, a peptide by itself, insulin by itself, and insulin plus peptide. […] The peptide, at about 20 min., the blood glucose had dropped to about 65% of its original value and then slowly rose back to about the original value at about 90 min. and was maintained about the same level.

Compound: ACTH-(1-24): human ACTH-(1-24), routine control peptide, Peninsula Laboratories
Substrate for IR tyrosine Kinase (purified human IR): None of the control peptides (e.g. ACTH-(1-24) are substrates

Compound: EGF: epidermal growth factor (mouse), Collaborative Research
Glucose uptake above basal (rat adipocytes; EGF alone): ~ 50%
Apparent affinity of specific cell-associated EGF (EGFR): low nanomolar range

Compound: PDGF
Effect on glucose uptake in adipocytes (rat adipocytes; PDGF alone): no effect

Compound: TGFα: TGFα (rat), Peninsula Laboratories
[14C]glucose uptake above basal (rat adipocytes; 50 nM TGFα alone): ~ 50%

Continued, in another order:

EC50 (rat adipocytes): 10 to 15 µM
Compound: CC[C@H](C)[C@H](NC(=O)[C@H](CCC(N)=O)NC(=O)[C@@H](NC(=O)[C@H](CCC(=O)O)NC(=O)[C@H](CCCNC(=N)N)NC(=O)[C@@H](N)CCC(=O)O)[C@@H](C)O)C(=O)N[C@@H](C)C(=O)N[C@@H](CCCCN)C(=O)NCC(=O)N[C@@H](CC(N)=O)C(=O)N[C@@H](CCC(=O)O)C(=O)N[C@@H](CCC(N)=O)C(=O)N[C@@H](CO)C(=O)N[C@@H](Cc1ccccc1)C(=O)N[C@@H](CCCNC(=N)N)C(=O)N[C@H](C(=O)N[C@@H](CC(=O)O)C(=O)N[C@@H](CC(C)C)C(=O)N[C@@H](CCCNC(=N)N)C(=O)N[C@H](C(=O)N[C@@H](CC(C)C)C(=O)N[C@@H](CC(C)C)C(=O)N[C@@H](CCCNC(=N)N)C(=O)N[C@@H](Cc1ccc(O)cc1)C(=O)N[C@@H](Cc1ccc(O)cc1)C(=O)O)[C@@H](C)O)C(C)C [D^k-(61-85)] (H-ERETQIAKGNEQSFRVDLRTLLRYY-OH)

EC50 (purified human IR; insulin as stimulus): ~0.003 µM
Compound: insulin: unlabeled porcine insulin (NOVO)
Blood glucose course compared with peptide alone (rats): A similar result
